Assays:
[1] = tested on: U-87 MG human glioblastoma; assay: U87 MG CCK-8 proliferation assay; type: cell-based; settings: Homo sapiens, U-87 MG, 72 h, U-87 MG cells, read-out: U87MG CCK-8
Outline: (§1)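 Cells cultured per ATCC recommendations and treated with 3-fold serial dilutions of compound from 20 μM to 1.02 nM. Viability by CCK-8 absorbance; % inhibition computed relative to DMSO-treated cells, with cell-free medium plus DMSO as blank.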

HSP90α protein = target: T1, HSP90α protein (Homo sapiens, UniProt P07900); assay: HSP90α-binding FP (BODIPY) assay; settings: FP competition with BODIPY-labeled RNK04010
T1 construct: purchased BPS Bioscience #50298
Experimental: Binding of test compounds to HSP90α protein was measured by fluorescent polarization (FP) using the HSP90α (N-terminal) Assay Kit (BPS Bioscience, #50298), following the manufacturer's instructions, except as noted. Fluorescently labeled HSP90-binding compounds, either the provided FITC-geldanamycin (5 nM final concentration) or RNK04010, a triazolone-based HSP90 binding small molecule labeled with BODIPY through a piperazine-phenyl linker (5 nM final concentration) were employed. A 2.5-fold serial dilution of each test compound ranging from 20 μM to 5.2 nM was assayed for binding to HSP90α. After the final step of adding HSP90α protein to each assay well, plates were mixed by brief shaking, incubated at 25° C. for 120 min for FITC-geldanamycin or 300 min for RNK04010, and fluorescence was measured using a PerkinElmer EnVision Plate Reader.

[2] = tested on: MV-4-11 human acute myeloid leukemia; assay: MV-4-11 CCK-8 proliferation assay; type: cell-based; settings: Homo sapiens, MV4-11; MV-4-11 cells, 72 hr
Outline: as §1

Row | EC50 [1] [nM] | IC50 (HSP90α protein) [nM] | EC50 [2] [nM] | Structure (SMILES)
1 | 100 to 1000 | 100 to 1000 | < 100 | CCOc1cc(N2CCC(C(=O)N3CCC(CN4CCN(Cc5ccc(-n6c(O)nnc6-c6cc(CC)c(O)cc6O)cc5F)CC4)CC3)CC2)ccc1Nc1ncc2c(n1)N(C)c1ccccc1C(=O)N2C [Compound 019, 2-((2-ethoxy-4-(4-(4-((4-(4-(3-(5-ethyl-2,4-dihydroxyphenyl)-5-hydroxy-4H-1,2,4-triazol-4-yl)-2-fluorobenzyl)piperazin-1-yl)methyl)piperidine-1-carbonyl)piperidin-1-yl)phenyl)amino)-5,11-dimethyl-5,11-dihydro-6H-benzo[e]pyrimido[5,4-b][1,4]diazepin-6-one]
2 | 100 to 1000 | 100 to 1000 | 100 to 1000 | CCCc1cc(-c2nnc(O)n2-c2ccc(CN3CCN(CC4CCN(C(=O)C5CCN(c6ccc(Nc7ncc8c(n7)N(C)c7ccccc7C(=O)N8C)c(OCC)c6)CC5)CC4)CC3)cc2)c(O)cc1O [Compound 020, 2-((4-(4-(4-((4-(4-(3-(2,4-dihydroxy-5-propylphenyl)-5-hydroxy-4H-1,2,4-triazol-4-yl)benzyl)piperazin-1-yl)methyl)piperidine-1-carbonyl)piperidin-1-yl)-2-ethoxyphenyl)amino)-5,11-dimethyl-5,11-dihydro-6H-benzo[e]pyrimido[5,4-b][1,4]diazepin-6-one]
3 | – | 100 to 1000 | < 100 | CCOc1cc(N2CCC(C(=O)N3CCC(CN4CCN(Cc5ccc(-n6c(C(=O)NC(C)C(F)(F)F)nnc6-c6cc(CC)c(O)cc6O)cc5)CC4)CC3)CC2)ccc1Nc1ncc2c(n1)N(S(C)(=O)=O)c1ccccc1C(=O)N2C (stereo not shown) [Compound 107, 4-(4-((4-((1-(1-(3-ethoxy-4-((5-methyl-11-(methylsulfonyl)-6-oxo-6,11-dihydro-5H-benzo[e]pyrimido[5,4-b][1,4]diazepin-2-yl)amino)phenyl)piperidine-4-carbonyl)piperidin-4-yl)methyl)piperazin-1-yl)methyl)phenyl)-5-(5-ethyl-2,4-dihydroxyphenyl)-N-(1,1,1-trifluoropropan-2-yl)-4H-1,2,4-triazole-3-carboxamide]
4 | – | > 1000 | 100 to 1000 | CCOc1cc(N2CCC(C(=O)N3CCC(CN4CCC(COc5ccc(Nc6cc(-n7nc(C(F)(F)F)c8c7CC(C)(C)CC8=O)ccc6C(N)=O)cc5)CC4)CC3)CC2)ccc1Nc1ncc2c(n1)N(S(C)(=O)=O)c1ccccc1C(=O)N2C [Compound 137, 4-(6,6-dimethyl-4-oxo-3-(trifluoromethyl)-4,5,6,7-tetrahydro-1H-indazol-1-yl)-2-((4-((1-((1-(1-(3-ethoxy-4-((5-methyl-11-(methylsulfonyl)-6-oxo-6,11-dihydro-5H-benzo[e]pyrimido[5,4-b][1,4]diazepin-2-yl)amino)phenyl)piperidine-4-carbonyl)piperidin-4-yl)methyl)piperidin-4yl)methoxy)phenyl)amino)benzamide]
5 | – | > 1000 | 100 to 1000 | CCOc1cc(N2CCC(C(=O)N3CCC(CN4CCN(CCOc5ccc(Nc6cc(-n7nc(C(F)(F)F)c8c7CC(C)(C)CC8=O)ccc6C(N)=O)cc5)CC4)CC3)CC2)ccc1Nc1ncc2c(n1)N(S(C)(=O)=O)c1ccccc1C(=O)N2C [Compound 138, 4-(6,6-dimethyl-4-oxo-3-(trifluoromethyl)-4,5,6,7-tetrahydro-1H-indazol-1-yl)-2-((4-(2-(4-((1-(1-(3-ethoxy-4-((5-methyl-11-(methylsulfonyl)-6-oxo-6,11-dihydro-5H-benzo[e]pyrimido[5,4-b][1,4]diazepin-2-yl)amino)phenyl)piperidine-4-carbonyl)piperidin-4-yl)methyl)piperazin-1-yl)ethoxy)phenyl)amino)benzamide]
6 | – | > 1000 | 100 to 1000 | CCOc1cc(N2CCC(C(=O)NCCOCCOCCOc3ccc(Nc4cc(-n5nc(C(F)(F)F)c6c5CC(C)(C)CC6=O)ccc4C(N)=O)cc3)CC2)ccc1Nc1ncc2c(n1)N(S(C)(=O)=O)c1ccccc1C(=O)N2C [Compound 139, N-(2-(2-(2-(4-((2-carbamoyl-5-(6,6-dimethyl-4-oxo-3-(trifluoromethyl)-4,5,6,7-tetrahydro-1H-indazol-1-yl)phenyl)amino)phenoxy)ethoxy)ethoxy)ethyl)-1-(3-ethoxy-4-((5-methyl-11-(methylsulfonyl)-6-oxo-6,11-dihydro-5H-benzo[e]pyrimido[5,4-b][1,4]diazepin-2-yl)amino)phenyl)piperidine-4-carboxamide]
7 | – | > 1000 | 100 to 1000 | CCOc1cc(N2CCC(C(=O)NCCOCCOCCOCCOc3ccc(Nc4cc(-n5nc(C(F)(F)F)c6c5CC(C)(C)CC6=O)ccc4C(N)=O)cc3)CC2)ccc1Nc1ncc2c(n1)N(S(C)(=O)=O)c1ccccc1C(=O)N2C [Compound 140, N-(2-(2-(2-(2-(4-((2-carbamoyl-5-(6,6-dimethyl-4-oxo-3-(trifluoromethyl)-4,5,6,7-tetrahydro-1H-indazol-1-yl)phenyl)amino)phenoxy)ethoxy)ethoxy)ethoxy)ethyl)-1-(3-ethoxy-4-((5-methyl-11-(methylsulfonyl)-6-oxo-6,11-dihydro-5H-benzo[e]pyrimido[5,4-b][1,4]diazepin-2-yl)amino)phenyl)piperidine-4-carboxamide]
8 | 100 to 1000 | – | < 100 | CCOc1cc(N2CCC(CN3CCN(Cc4ccc(-n5c(C(=O)NC(C)C(F)(F)F)nnc5-c5cc(CC)c(O)cc5O)cc4)CC3)CC2)ccc1Nc1ncc2c(n1)N(S(C)(=O)=O)c1ccccc1C(=O)N2C (stereo not shown) [Compound 185, 4-(4-((4-((1-(3-ethoxy-4-((5-methyl-11-(methylsulfonyl)-6-oxo-6,11-dihydro-5H-benzo[e]pyrimido[5,4-b][1,4]diazepin-2-yl)amino)phenyl)piperidin-4-yl)methyl)piperazin-1-yl)methyl)phenyl)-5-(5-ethyl-2,4-dihydroxyphenyl)-N-(1,1,1-trifluoropropan-2-yl)-4H-1,2,4-triazole-3-carboxamide]
9 | > 1000 | – | 100 to 1000 | CCOc1cc(N2CCC(CN3CCN(Cc4ccc(-n5c(C(=O)NC(C)C(F)(F)F)nnc5-c5cc(CC)c(O)cc5O)cc4)CC3)CC2)ccc1Nc1ncc2c(n1)N(C1CCCC1)c1ccccc1C(=O)N2C (stereo not shown) [Compound 186, 4-(4-((4-((1-(4-((11-cyclopentyl-5-methyl-6-oxo-6,11-dihydro-5H-benzo[e]pyrimido[5,4-b][1,4]diazepin-2-yl)amino)-3-ethoxyphenyl)piperidin-4-yl)methyl)piperazin-1-yl)methyl)phenyl)-5-(5-ethyl-2,4-dihydroxyphenyl)-N-(1,1,1-trifluoropropan-2-yl)-4H-1,2,4-triazole-3-carboxamide]
10 | < 100 | – | < 100 | CCOc1cc(N2CCC(CN3CCN(Cc4ccc(-n5c(O)nnc5-c5cc(C(C)C)c(O)cc5O)cc4)CC3)CC2)ccc1Nc1ncc2c(n1)N(S(C)(=O)=O)c1ccccc1C(=O)N2C [Compound 187, 2-((4-(4-((4-(4-(3-(2,4-dihydroxy-5-isopropylphenyl)-5-hydroxy-4H-1,2,4-triazol-4-yl)benzyl)piperazin-1-yl)methyl)piperidin-1-yl)-2-ethoxyphenyl)amino)-5-methyl-11-(methylsulfonyl)-5,11-dihydro-6H-benzo[e]pyrimido[5,4-b][1,4]diazepin-6-one]
11 | > 1000 | – | 100 to 1000 | CCOc1cc(N2CCN(Cc3ccc(-n4c(O)nnc4-c4cc(C(C)C)c(O)cc4O)cc3)CC2)ccc1Nc1ncc2c(n1)N(C1CCCC1)c1ccccc1C(=O)N2C [Compound 188, 11-cyclopentyl-2-((4-(4-(4-(3-(2,4-dihydroxy-5-isopropylphenyl)-5-hydroxy-4H-1,2,4-triazol-4-yl)benzyl)piperazin-1-yl)-2-ethoxyphenyl)amino)-5-methyl-5,11-dihydro-6H-benzo[e]pyrimido[5,4-b][1,4]diazepin-6-one]
12 | 100 to 1000 | – | 100 to 1000 | CCNC(=O)c1nnc(-c2cc(C(C)C)c(O)cc2O)n1-c1ccc(CN2CCN(c3ccc(Nc4ncc5c(n4)N(C4CCCC4)c4ccccc4C(=O)N5C)c(OCC)c3)CC2)cc1 [Compound 190, 4-(4-((4-(4-((11-cyclopentyl-5-methyl-6-oxo-6,11-dihydro-5H-benzo[e]pyrimido[5,4-b][1,4]diazepin-2-yl)amino)-3-ethoxyphenyl)piperazin-1-yl)methyl)phenyl)-5-(2,4-dihydroxy-5-isopropylphenyl)-N-ethyl-4H-1,2,4-triazole-3-carboxamide]
13 | < 100 | – | < 100 | CCOc1cc(CN2CCC(CN3CCN(Cc4ccc(-n5c(C(=O)NCC(F)(F)F)nnc5-c5cc(C(C)C)c(O)cc5O)cc4)CC3)CC2)ccc1Nc1ncc2c(n1)N(S(C)(=O)=O)c1ccccc1C(=O)N2C [Compound 191, 5-(2,4-dihydroxy-5-isopropylphenyl)-4-(4-((4-((1-(3-ethoxy-4-((5-methyl-11-(methylsulfonyl)-6-oxo-6,11-dihydro-5H-benzo[e]pyrimido[5,4-b][1,4]diazepin-2-yl)amino)benzyl)piperidin-4-yl)methyl)piperazin-1-yl)methyl)phenyl)-N-(2,2,2-trifluoroethyl)-4H-1,2,4-triazole-3-carboxamide]
